Data on 22 compounds can be found in US20240124444A1 (Celgene Corporation, priority 2020, published 2024).

Where two headings read alike, the source gives them in different places. Where only a bound is given, the exact number is not on record here.

This experiment relates to C. parvum strain UGA1. Nature of the experiment: C. parvum growth inhibition assay (Nluc luminescence in HCT-8 cells). It counts as cell-based, Cryptosporidium parvum. To be noted: Cryptosporidium parvum; for inhibition at 1 µM / inhibition at 10 µM: HCT-8; for inhibition at 1 µM: read-out: % inh @ 1 uM C. parvum; for inhibition at 10 µM: read-out: % inh @ 10 uM C. parvum; for EC50: HCT-8, 48 h, C. parvum growth inhibition in HCT-8 cells, 48 hours, 6 concentrations 10-0.04 μM.

Where [1] appears, read: single point inhibition at 1 uM.
The mark [2] stands for this setting: single point inhibition at 10 uM.
The mark [3] stands for this setting: single point inhibition @ 10 uM.

In the case of `Cc1nn(C)cc1C(=O)Nc1cc2[nH]c(-c3ccnc(OCC(F)(F)F)n3)cc2cn1` [Example 226, 1,3-dimethyl-N-(2-(2-(2,2,2-trifluoroethoxy)pyrimidin-4-yl)-1H-pyrrolo[3,2-c]pyridin-6-yl)-1H-pyrazole-4-carboxamide], the inhibition at 1 µM under setting [1] was in the range of 0 to 33%. The inhibition at 10 µM under setting [2] lay within 33 to 66%. The corresponding values for `Cn1cc(C(=O)Nc2cc3[nH]c(-c4ccnc(C(F)(F)F)c4)cc3cn2)cn1` [Example 284, 1-methyl-N-(2-(2-(trifluoromethyl)pyridin-4-yl)-1H-pyrrolo[3,2-c]pyridin-6-yl)-1H-pyrazole-4-carboxamide] are 0 to 33% and 0 to 33%. Regarding `COc1nccc(-c2cc3cnc(NC(=O)C4C5CCCC54)cc3[nH]2)n1` (stereo not drawn) [Example 176, N-(2-(2-methoxypyrimidin-4-yl)-1H-pyrrolo[3,2-c]pyridin-6-yl)bicyclo[3.1.0]hexane-6-carboxamide], the inhibition at 1 µM (single point inhibition @ 1 uM) lay within 0 to 33%. Further, under setting [3], the inhibition at 10 µM fell in the range of 67 to 100%. For `O=C(Nc1cc2[nH]c(-c3cccnc3)cc2cn1)C1CCCC1` [Example 276, N-(2-(pyridin-3-yl)-1H-pyrrolo[3,2-c]pyridin-6-yl)cyclopentanecarboxamide], the inhibition at 1 µM under setting [1] lay in the range of 0 to 33%. Under setting [2], the inhibition at 10 µM lay within 0 to 33%. As for `CO[C@H]1C[C@H](C(=O)Nc2cc3[nH]c(-c4ccnc(C)c4)cc3cn2)C1` [Example 161, (1r,3r)-3-methoxy-N-(2-(2-methylpyridin-4-yl)-1H-pyrrolo[3,2-c]pyridin-6-yl)cyclobutanecarboxamide], for the setting “single point inhibition @ 1 uM”, the inhibition at 1 µM lay within 0 to 33%. Moreover, under setting [3], the inhibition at 10 µM lay in the range of 67 to 100%.

On to `CC(C)CNc1cc2[nH]c(-c3cccnc3)cc2cn1` [Example 273, N-isobutyl-2-(pyridin-3-yl)-1H-pyrrolo[3,2-c]pyridin-6-amine], for which, under setting [1], the inhibition at 1 µM lay in the range of 0 to 33%. Further, the inhibition at 10 µM under setting [2] lay in the range of 0 to 33%. As to `CC(=O)Nc1cc2c(cn1)cc(C#N)n2C` [Example 245, N-(2-cyano-1-methyl-1H-pyrrolo[3,2-c]pyridin-6-yl)acetamide], the inhibition at 1 µM under setting [1] lay within 0 to 33%. In addition, under setting [2], the inhibition at 10 µM lay in the range of 0 to 33%.

As for `Cn1cc(C(=O)Nc2cc3[nH]c(-c4ccnc(OCC(C)(C)C)n4)cc3cn2)cn1` [Example 319, 1-methyl-N-(2-(2-(neopentyloxy)pyrimidin-4-yl)-1H-pyrrolo[3,2-c]pyridin-6-yl)-1H-pyrazole-4-carboxamide], the inhibition at 1 µM under setting [1] lay in the range of 0 to 33%. Moreover, under setting [2], the inhibition at 10 µM was in the range of 0 to 33%. Consider `CCc1cc2cnc(NC3CCOCC3)cc2[nH]1` [Example 361, 2-ethyl-N-(tetrahydro-2H-pyran-4-yl)-1H-pyrrolo[3,2-c]pyridin-6-amine], for which the EC50 was > 1 µM. In the case of `Cc1cc(C(=O)Nc2cc3[nH]c(-c4ccnc(NCC(F)(F)F)c4)cc3cn2)nn1C` [Example 305, 1,5-dimethyl-N-(2-(2-(2,2,2-trifluoroethylamino)pyridin-4-yl)-1H-pyrrolo[3,2-c]pyridin-6-yl)-1H-pyrazole-3-carboxamide], the inhibition at 1 µM under setting [1] lay in the range of 0 to 33%. Also, under setting [2], the inhibition at 10 µM was 0 to 33%.

With `COc1nccc(-c2cc3cnc(NC(=O)c4cnn(CC5CCCO5)c4)cc3[nH]2)n1` (stereo in doubt) [Example 231, (R)-N-(2-(2-methoxypyrimidin-4-yl)-1H-pyrrolo[3,2-c]pyridin-6-yl)-1-((tetrahydrofuran-2-yl)methyl)-1H-pyrazole-4-carboxamide], under setting [1], the inhibition at 1 µM was 33 to 66%. The inhibition at 10 µM under setting [2] fell in the range of 33 to 66%.

Regarding `N#Cc1cc(-c2cc3cnc(Nc4cccc(-c5nnc[nH]5)c4)cc3[nH]2)ccn1` [Example 79, 4-(6-(3-(4H-1,2,4-triazol-3-yl)phenylamino)-1H-pyrrolo[3,2-c]pyridin-2-yl)picolinonitrile], the EC50 was > 1 µM. Further, the inhibition at 1 µM (single point inhibition @ 1 uM) was 33 to 66%. Also, the inhibition at 10 µM under setting [3] lay in the range of 67 to 100%.

With `CSc1ccc(Nc2cc3c(cn2)cc(-c2cnn(C)c2)n3C)cc1` [Example 193, 1-methyl-2-(1-methyl-1H-pyrazol-4-yl)-N-(4-(methylthio)phenyl)-1H-pyrrolo[3,2-c]pyridin-6-amine], the inhibition at 1 µM (single point inhibition @ 1 uM) lay within 0 to 33%. Besides, under setting [3], the inhibition at 10 µM was in the range of 67 to 100%. On to `COc1nccc(-c2cc3cnc(NC(=O)c4cnn(CC5CCOC5)c4)cc3[nH]2)n1` (stereo in doubt) [Example 156, (S)-N-(2-(2-methoxypyrimidin-4-yl)-1H-pyrrolo[3,2-c]pyridin-6-yl)-1-((tetrahydrofuran-3-yl)methyl)-1H-pyrazole-4-carboxamide], for which the inhibition at 1 µM (single point inhibition @ 1 uM) was 0 to 33%. In addition, under setting [3], the inhibition at 10 µM was 67 to 100%. `FC(F)(F)CNc1nccc(-c2cc3cnc(NC4CCOC4)cc3[nH]2)n1` (stereo in doubt) [Example 374, (S)-N-(tetrahydrofuran-3-yl)-2-(2-(2,2,2-trifluoroethylamino)pyrimidin-4-yl)-1H-pyrrolo[3,2-c]pyridin-6-amine] showed an EC50 of 0.5 to 1 µM. Turning to `COc1nccc(-c2cc3cnc(NC(=O)CC4COC4)cc3n2C)n1` [Example 87, N-(2-(2-methoxypyrimidin-4-yl)-1-methyl-1H-pyrrolo[3,2-c]pyridin-6-yl)-2-(oxetan-3-yl)acetamide], the EC50 is > 1 µM. For the same compound, the inhibition at 1 µM (single point inhibition @ 1 uM) fell in the range of 33 to 66%. Also, the inhibition at 10 µM under setting [3] lay within 0 to 33%.

In the case of `Cc1cc(-c2cc3cnc(NC4CCOCC4)cc3n2C)ccn1` [Example 59, 1-methyl-2-(2-methylpyridin-4-yl)-N-(tetrahydro-2H-pyran-4-yl)-1H-pyrrolo[3,2-c]pyridin-6-amine], the EC50 was > 1 µM. With `COc1nccc(-c2cc3cnc(NC(=O)c4cn(CC5CCOC5)nc4C)cc3[nH]2)n1` (stereo in doubt) [Example 246, (R)-N-(2-(2-methoxypyrimidin-4-yl)-1H-pyrrolo[3,2-c]pyridin-6-yl)-3-methyl-1-((tetrahydrofuran-3-yl)methyl)-1H-pyrazole-4-carboxamide], under setting [1], the inhibition at 1 µM was 0 to 33%. The inhibition at 10 µM under setting [2] was in the range of 0 to 33%. For `Cc1cc(-c2cc3cnc(NC(=O)c4cccc5c4cnn5C)cc3[nH]2)ccn1` [Example 288, 1-methyl-N-(2-(2-methylpyridin-4-yl)-1H-pyrrolo[3,2-c]pyridin-6-yl)-1H-indazole-4-carboxamide], under setting [1], the inhibition at 1 µM fell in the range of 0 to 33%. Further, under setting [2], the inhibition at 10 µM was in the range of 0 to 33%.

For `Cc1cc(-c2cc3cnc(NC(=O)c4cccc5cn[nH]c45)cc3[nH]2)ccn1` [Example 237, N-(2-(2-methylpyridin-4-yl)-1H-pyrrolo[3,2-c]pyridin-6-yl)-1H-indazole-7-carboxamide], the inhibition at 1 µM under setting [1] fell in the range of 0 to 33%. Besides, the inhibition at 10 µM under setting [2] fell in the range of 33 to 66%. Take `Cn1cc(C(=O)Nc2cc3[nH]c(C#N)cc3cn2)cn1` [Example 280, N-(2-cyano-1H-pyrrolo[3,2-c]pyridin-6-yl)-1-methyl-1H-pyrazole-4-carboxamide]: under setting [1], the inhibition at 1 µM was 0 to 33%. In addition, under setting [2], the inhibition at 10 µM was 0 to 33%. In the case of `O=C(Nc1cc2[nH]c(-c3cnc(C4CC4)o3)cc2cn1)C1CC1` [Example 61, N-(2-(2-cyclopropyloxazol-5-yl)-1H-pyrrolo[3,2-c]pyridin-6-yl)cyclopropanecarboxamide], the EC50 is > 1 µM.
